Where two headings read alike, the source gives them in different places.
Assays:
human TrxR1 = molecular target: T1, human TrxR1 (Homo sapiens, UniProt Q16881); assay: Isolated TrxR1 inhibition (DTNB assay); assay type: biochemical; conditions: 75 min incubation at 37 °C
T1 construct: purchased SeLENOZYME
T1 sequence (Q16881 1-499 isoform Q16881-5): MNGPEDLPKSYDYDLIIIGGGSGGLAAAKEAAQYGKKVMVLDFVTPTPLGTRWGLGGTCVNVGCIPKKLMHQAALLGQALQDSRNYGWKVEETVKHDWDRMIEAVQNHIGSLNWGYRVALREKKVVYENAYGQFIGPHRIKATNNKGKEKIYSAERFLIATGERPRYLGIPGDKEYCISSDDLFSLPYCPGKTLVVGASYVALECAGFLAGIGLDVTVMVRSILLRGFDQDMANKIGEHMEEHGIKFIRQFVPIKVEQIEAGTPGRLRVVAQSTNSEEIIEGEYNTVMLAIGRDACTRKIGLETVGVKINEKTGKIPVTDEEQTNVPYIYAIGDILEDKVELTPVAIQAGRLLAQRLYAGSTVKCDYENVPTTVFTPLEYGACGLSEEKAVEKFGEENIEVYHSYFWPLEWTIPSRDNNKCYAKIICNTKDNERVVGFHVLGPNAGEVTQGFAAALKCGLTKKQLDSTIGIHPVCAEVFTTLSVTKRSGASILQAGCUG
Protocol: (§1) A number of gold and ruthenium complexes are known to inhibit members of the TrxR enzyme family.^[ [27] ^] […] We thus sought to evaluate the activity of our gold‐ and ruthenium‐containing complexes against TrxR1 (found in the cytoplasm) and TrxR2 (found in the mitochondria).
(§2) Human TrxR1 and TrxR2 were purchased from SeLENOZYME and inhibition studies were carried out by means of a DTNB assay in 96-well culture plates. Enzymes were diluted to achieve a concentration of 3.58 U mL^−1. The compounds subject to testing were freshly dissolved in DMF. 10 μL aliquots of the enzyme solution and 10 μL of solutions of the compounds at graded concentrations or 10 μL of 1% DMF in PBS (positive control) were added and incubated for 75 min at 37 °C. A second control consisted of 10 µL of the highest concentration of each compound with 10 µL of PBS. After the chosen incubation time, 10 µL of NADPH (10 mM), 160 µL TE buffer (50 mM Tris-HCl, 2 mM EDTA, pH 7.5) and 10 µL ethanolic DTNB (50 mM) were added producing a total reaction volume of 200 µL. After proper mixing, the formation of 5-TNB was monitored with a microplate reader at 405 nm. This was done 10 times at 30 second intervals over the course of about 5 min. A TNB standard curve (0-2 mM in 200 µL TE buffer) was used to calculate the exact DTNB consumed in the reaction with linear region slopes being calculated by plotting A405 vs time (min). The IC50 values representing the concentration of compound serving to decrease the enzymatic activity of the untreated control by 50% were calculated and are given as the mean and standard error of three repeated experiments. The combination index (CI) was calculated using the Chou-Talalay method^6

A375 (melanoma) = assay: Antiproliferative MTT assay, A375; assay type: cell-based, human; conditions: A375, 72 h incubation
Protocol: (§3) We examined the antiproliferative activity of the heterometallic complexes 3–5 and compared them against their monometallic constituent components, as well as a physical 1:1:1 mixture of 1 + Oxa + 2 after 72 h incubation across a panel of five cancer cell lines: A2780 (ovarian carcinoma), A2780cis (ovarian carcinoma resistant to cisplatin, also referred to as A2780CP), CT26 WT (murine colorectal carcinoma), A375 (melanoma), and PC9 (non‐small cell lung cancer).
(§4) A375 melanoma cells (5000 cells/well), PC9 […] cells (5000 cells/well), CT26 WT murine colon carcinoma cells (5000 cells/well), A2780 ovarian carcinoma cells (5000 cells/well), and A2780cis cisplatin-resistant ovarian carcinoma cells (7000 cells/well), were seeded in flat-bottom 96-well plates in their respective cell culture media (100 µL) and incubated at 37°C in a 5% CO2 environment for 24 h. After that, the media were replaced with the fresh media. Stock solutions of the compounds in DMSO or in cell culture medium (for Oxa) were freshly prepared and diluted with the respective cell culture medium to graded concentrations (final concentration of DMSOmax: 0.5% v/v). After 72 h of exposure, the media were removed and 100 µL of 0.5 mg/mL 3-(4,5-dimethylthiazol-2-yl)-2,5-diphenyl tetrazolium bromide (MTT) in DMEM or RPMI were added and the plate in question further incubated for an additional 1 h. The media containing the MTT solution was removed and the resulting formazan crystals were dissolved in 100 µL DMSO. The absorbance of the solution in each well was read at 570 nm using a BioTek Cytation3 plate reader. The IC50 value, which is the drug concentration needed for 50% reduction in survival, based on the survival curve, was calculated by fitting nonlinear curves in GraphPad Prism 5 Ver 5.03, using a normalized response variable slope model constructed by plotting cell viability (%) vs log of the concentration of the complex in question in nM. The results are presented as the mean values of three independent experiments.

[1] = test system: reducing enzymes, such as lipoamide dehydrogenase, glutathione reductase, and TrxR; assay type: cell-based
Protocol: We thus explored several targets in addition to cellular and organelle uptake after 24 h incubation. A lipoate‐to‐dihydrolipoate reduction assay in HCT‐116 cells was used to evaluate the ability of the complexes to inhibit reducing enzymes, such as lipoamide dehydrogenase, glutathione reductase, and TrxR.^[ [25] ^]
In short, HCT-116 cells were harvested and seeded at a density of 10,000 cells/well in 96-well culture plates. Following an overnight incubation at 37°C under a 5% CO2 atmosphere, the medium was replaced, and the cells incubated with 1 µM of each complex for additional 24 hr. Thereafter, the media were removed from each well, which were then washed with 200 μL of HBSS solution. Finally, 100 µL of 5 mM lipoate and 1 mM of DTNB solutions were added to each well. The absorbance of each well at 405 nm was recorded immediately and once every 20 min for one hour using a microplate reader. Plates were covered with aluminum foil between readings.

[2] = test system: CT26 WT (murine colorectal carcinoma); assay: Antiproliferative MTT assay, CT26 WT; assay type: cell-based; conditions: CT 26 WT, 72 h incubation
Protocol: as §3, §4

[3] = test system: A2780 (ovarian carcinoma); assay: Antiproliferative MTT assay, A2780; assay type: cell-based, human; conditions: A2780, 72 h incubation
Protocol: as §3, §4

human TrxR2 = molecular target: T2, human TrxR2 (Homo sapiens, UniProt Q9NNW7); assay: Isolated TrxR2 inhibition (DTNB assay); assay type: biochemical; conditions: 75 min incubation at 37 °C
T2 construct: purchased SeLENOZYME
T2 sequence (Q9NNW7 37-524): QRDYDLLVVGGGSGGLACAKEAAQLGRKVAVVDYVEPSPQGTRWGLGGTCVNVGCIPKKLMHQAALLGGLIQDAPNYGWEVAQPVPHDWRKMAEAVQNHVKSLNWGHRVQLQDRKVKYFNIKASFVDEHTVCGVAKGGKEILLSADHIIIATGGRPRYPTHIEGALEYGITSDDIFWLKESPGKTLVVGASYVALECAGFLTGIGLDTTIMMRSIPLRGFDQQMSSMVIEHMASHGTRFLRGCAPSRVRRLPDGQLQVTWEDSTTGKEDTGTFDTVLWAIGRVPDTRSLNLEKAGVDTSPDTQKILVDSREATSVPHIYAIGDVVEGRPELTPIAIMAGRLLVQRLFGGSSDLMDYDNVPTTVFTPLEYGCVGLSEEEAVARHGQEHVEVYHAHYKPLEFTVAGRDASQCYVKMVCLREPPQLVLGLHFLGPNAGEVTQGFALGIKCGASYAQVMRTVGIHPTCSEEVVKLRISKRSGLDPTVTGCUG
Protocol: as §1, §2

HCT-116 cells = assay: Total cellular metal accumulation (ICP-MS); assay type: cell-based; conditions: 1 µM, 24 h
Protocol: It is important to note the TrxR assay was performed using isolated enzymes. […] Recognizing this, we incubated HCT‐116 cells with 1 µM of complexes 1–5 for 24 h and quantified the total metal content via ICP‐MS (Figure 4a).
1 x 10^6 HCT-116 cells were seeded in a 6-well plate (2 mL RPMI-1640). After incubating overnight, the medium was replaced, and the cells were treated with the test compounds (1 µM) for 24 h. The resulting cell monolayers were washed twice with cold PBS, harvested and counted in PBS for a total volume of 400 µL. Samples were divided, and each was mineralized with 1 mL aqua regia and evaporated to dryness on a 110 °C hot plate overnight. Later, 1 mL of 2% HCl + 1% thiourea was added to each vial. Samples were quantified via ICP-MS. Metal accumulation levels were determined using the relative isotopic prevalence of ^195Pt, ^101Ru, and ^197Au.

[4] = test system: PC9 (non-small cell lung cancer); assay: Antiproliferative MTT assay, PC9; assay type: cell-based, human; conditions: PC9, 72 h incubation
Protocol: as §3, §4

[5] = test system: A2780cis (ovarian carcinoma resistant to cisplatin); assay: Antiproliferative MTT assay, A2780cis; assay type: cell-based, human; conditions: A2780 CisR, 72 h incubation
Protocol: as §3, §4

CT26 cells = assay: Extracellular HMGB1 release (ELISA); assay type: cell-based, murine; conditions: IC50 concentrations, 24 h
Protocol: Oxa alone produced a modest effect, consistent with its known ICD profile.^[ [5] ^]
1 x 10^6 CT-26 cells were seeded in a 6-well plate (2 mL RPMI-1640). […] The HMGB1 release of the supernatant was quantified using HMGB1 Detection Kit ELISA (Chondrex, Catalog 6010) according to the manufacturer’s instructions.

Row | Compound | IC50 (human TrxR1) [µM] | IC50 (A375 (melanoma)) [µM] | dihydrolipoate production relative to control [1] | IC50 [2] [µM] | IC50 [3] [µM] | IC50 (human TrxR2) [µM] | total cellular metal uptake (HCT-116 cells) | IC50 [4] [µM] | IC50 [5] [µM] | dihydrolipoate production relative to control ([1]; HCT-116 cells, 1 µM, 24 h) | Extracellular HMGB1 release (CT26 cells)
1 | Cc1ccc(C(C)C)cc1.O=C(O)c1ccc(NC(=S)c2ccccn2)cc1.[Cl-].[Cl][Ru+] [Complex 1, [Chlorido(η6-p-cymene)(N-(4-benzoic acid)-2-pyridinecarbothioamide)ruthenium(II)] chloride] | 3.44 ± 0.32 | > 40 | activity similar to untreated cells (control) | > 40 | 15.7 ± 4.3 | 4.36 ± 0.41 | low accumulation of ruthenium | > 40 | > 40 |  | 
2 | O=C1[O][Pt]2([NH][C@@H]3CCCC[C@H]3[NH]2)[O]C1=O [Oxa, oxaliplatin, reference compound] | 25.6 ± 3.7 | 3.16 ± 0.49 |  | 20 ± 1.4 | 0.29 ± 0.03 | 28.2 ± 2.9 |  | 8.2 ± 1 | 1.01 ± 0.22 | activity similar to untreated cells (control) | modest effect
3 | Cc1cc(C)c(-n2ccn(CCOC(=O)NCCN)[c]2=[Au-3]=[c]2n(-c3c(C(C)C)cccc3C(C)C)c3c(n2-c2c(C(C)C)cccc2C(C)C)C(=O)c2ccccc2C3=O)c(C)c1.O=C([O-])C(F)(F)F [Complex 2, (1-(2-(((2-Aminoethyl)carbamoyl)oxy)ethyl)-3-mesityl-1,3-dihydro-2H-2λ3-imidazol-2-yl)(1,3-bis(2,6-diisopropylphenyl)-4,9-dioxo-1,3,4,9-tetrahydro-2H-2λ3-naphtho[2,3-d]imidazol-2-yl)gold (I) TFA salt] | 1.62 ± 0.13 | 2.48 ± 0.35 |  | 14.9 ± 0.4 | 0.34 ± 0.08 | 1.27 ± 0.21 |  | 0.49 ± 0.13 | 0.56 ± 0.09 | 72% | 
4 | CC(=O)OC[C@H]1O[C@@H]([S-])[C@H](OC(C)=O)[C@@H](OC(C)=O)[C@@H]1OC(C)=O.CCP(CC)CC.[Au+] [Auranofin, reference compound] | 0.06 ± 0.02 |  |  |  |  | 0.22 ± 0.04 |  |  |  | 55% | 

Source: article PMC12455390, “Three Is Better than One: A Multimetal Complex that Triggers Immunogenic Cell Death” (Angewandte Chemie (International Ed. in English), 2025)
